From patent US6774132B1, “Spirooxindole derivatives that act as analgesics” (AstraZeneca AB, priority 1999, dated 2004)

- melting point: 110 to 112 °C
Compound: CCCN1CCCC2(C1)NC(=O)c1ccccc12.Cl (stereo not shown)
